Results on eight compounds are retold here after PubChem BioAssay (NCI).

Structures are written as SMILES. Several values for one entry are separate records, joined by “and”; a condition that tells them apart may be missing. Equal values may be shown once.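 Exposure lasted 48 hours, with cells grown in 96-well plates and compounds tested at five concentrations. GI50 = concentration required for 50% inhibition of growth. Definition used: TGI = concentration required for complete inhibition of growth.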

Among the test systems are BT-549 breast; HT29 colon; SK-OV-3 ovarian; SNB-19 CNS; OVCAR-3 ovarian; T-47D breast; 786-0 renal; OVCAR-5 ovarian; UACC-62 melanoma.
Holding throughout (test): NCI anticancer screen, dose series, 48 h

On to `COc1cc(C(=O)/C=C/c2c(C)n([O-])c3ccc(C)cc3[n+]2=O)cc(OC)c1OC`, for which the GI50 in the assay with BT-549 breast was 8.06 µM; in the assay on HT29 colon it was 4.84 µM; with SK-OV-3 ovarian it was 32.7 µM; with SNB-19 CNS it was 20.8 µM; with OVCAR-3 ovarian it was 3.11 µM; in the assay on T-47D breast it was 2.23 µM. Moreover, the GI50 is 7.62 µM in the assay on 786-0 renal, 12.8 µM with OVCAR-5 ovarian and 8.46 µM in the assay with UACC-62 melanoma. Moreover, the TGI with BT-549 breast was 33.2 µM; in the assay on HT29 colon, 16.5 µM; with SK-OV-3 ovarian, over 100 µM; in the assay with SNB-19 CNS, 46 µM; in the assay on OVCAR-3 ovarian it was 7.1 µM; in the assay with T-47D breast, 5.81 µM. The TGI in the assay with 786-0 renal is 21.7 µM; in the assay with OVCAR-5 ovarian, 29.6 µM; with UACC-62 melanoma it was 32.4 µM.
As to `CC(=O)N[C@@H](Cc1ccc(OP(=O)(O)O)cc1)C(=O)N[C@H]1CCC(=O)N2CCC[C@@H](C(=O)NCc3ccc(Cl)cc3)N2C1=O`, the GI50 in the assay with BT-549 breast, in the assay on HT29 colon, in the assay on SK-OV-3 ovarian, in the assay with SNB-19 CNS, with OVCAR-3 ovarian and in the assay with T-47D breast was over 25 µM each time. Moreover, the GI50 with 786-0 renal, with OVCAR-5 ovarian and in the assay with UACC-62 melanoma was over 25 µM each time. Moreover, the TGI in the assay on BT-549 breast, with HT29 colon, in the assay on SK-OV-3 ovarian, with SNB-19 CNS, in the assay on OVCAR-3 ovarian and with T-47D breast was over 25 µM throughout. In addition, the TGI with 786-0 renal, in the assay on OVCAR-5 ovarian and in the assay with UACC-62 melanoma was over 25 µM each time.
On to `N#Cc1c(-c2ccccc2)nc(SCC2CO2)nc1N1CCOCC1` (stereo not given), for which the GI50 with BT-549 breast was 5.89 µM; in the assay with HT29 colon it was 29.7 µM; in the assay on SK-OV-3 ovarian, 8.25 µM; in the assay with SNB-19 CNS, 64.4 µM; in the assay with OVCAR-3 ovarian, 5.27 µM; in the assay on T-47D breast, 2.74 µM. The GI50 in the assay on 786-0 renal is 4.12 µM; in the assay with OVCAR-5 ovarian, 5.05 µM; in the assay with UACC-62 melanoma it was 3.52 µM. Also, the TGI in the assay with BT-549 breast was over 94.1 µM; with HT29 colon, over 100 µM; in the assay with SK-OV-3 ovarian, 57.3 µM; in the assay with SNB-19 CNS, over 100 µM; in the assay with OVCAR-3 ovarian, over 69.2 µM; in the assay with T-47D breast, 16.4 µM. The results for the TGI in the assay with 786-0 renal, in the assay with OVCAR-5 ovarian and in the assay on UACC-62 melanoma were over 46.1 µM, over 83.3 µM and over 86.9 µM, respectively.
Turning to `CN(C)CCOc1ccc(-c2nc(-c3ccc4c(c3)CC/C4=N\O)c(-c3ccncc3)[nH]2)cc1`, the GI50 is 4.73 µM and 15 µM with BT-549 breast; 0.127 µM and 0.29 µM with HT29 colon; 3.67 µM and 9.66 µM in the assay on SK-OV-3 ovarian; 5.29 µM and 5.01 µM with SNB-19 CNS; 4.42 µM and 4.34 µM in the assay on OVCAR-3 ovarian; 4.8 µM and 7.63 µM with T-47D breast. Also, the GI50 in the assay on 786-0 renal was 5.02 µM and 2.22 µM; with OVCAR-5 ovarian, 3.7 µM and 1.61 µM; in the assay on UACC-62 melanoma, 0.0177 µM and 0.0275 µM. The TGI in the assay with BT-549 breast is 9.3 µM and 44.1 µM; in the assay with HT29 colon it was 4.53 µM and 3.49 µM; with SK-OV-3 ovarian, 7.52 µM and 22.1 µM; in the assay on SNB-19 CNS it was 10.8 µM and 9.56 µM; with OVCAR-3 ovarian it was 8.49 µM and 8.94 µM; in the assay on T-47D breast, 9.55 µM and 30.6 µM. In addition, the TGI in the assay with 786-0 renal is 9.83 µM and 4.17 µM; in the assay on OVCAR-5 ovarian, 7.55 µM and 6.27 µM; in the assay with UACC-62 melanoma, 2.55 µM and 0.876 µM.
In the case of `COc1ccc2[nH]c(=O)c3c4ccccc4cn3c2c1`, the GI50 in the assay on BT-549 breast was 7.3 µM; with HT29 colon, 0.375 µM; in the assay with SK-OV-3 ovarian, 0.451 µM; in the assay on SNB-19 CNS, 0.95 µM; in the assay with OVCAR-3 ovarian it was 0.253 µM; with T-47D breast it was 0.756 µM. Besides, the figures for the GI50 with 786-0 renal, in the assay with OVCAR-5 ovarian and in the assay on UACC-62 melanoma were 0.553 µM, 0.659 µM and 0.345 µM, respectively. Moreover, the TGI in the assay with BT-549 breast stood at 20.9 µM; in the assay on HT29 colon, 1.44 µM; with SK-OV-3 ovarian, 11.5 µM; in the assay with SNB-19 CNS, 9.33 µM; with OVCAR-3 ovarian it was 0.608 µM; in the assay with T-47D breast it was 3.84 µM. In addition, the TGI in the assay with 786-0 renal stood at 1.95 µM; in the assay with OVCAR-5 ovarian it was 2.69 µM; in the assay with UACC-62 melanoma, 1.4 µM.
Regarding `Cc1cc2nc(C(C)C(=O)c3ccc(Cl)cc3)c(=O)[nH]c2cc1C` (stereo not given), the TGI in the assay with BT-549 breast is over 100 µM; in the assay with HT29 colon it was 66.4 µM; with SK-OV-3 ovarian it was over 100 µM; in the assay with SNB-19 CNS it was over 100 µM; in the assay with OVCAR-3 ovarian, over 100 µM; in the assay on T-47D breast, over 100 µM. Moreover, the TGI with 786-0 renal was 92.3 µM; in the assay with OVCAR-5 ovarian, over 100 µM; with UACC-62 melanoma, over 100 µM.
On to `FC(F)(F)Oc1cccc(-c2cnc3ccc(-c4ccncc4)nn23)c1`, for which the GI50 in the assay with BT-549 breast was 1.42 µM; in the assay with HT29 colon it was 1.34 µM; in the assay on SK-OV-3 ovarian, 0.392 µM; in the assay with SNB-19 CNS, 2.07 µM; with OVCAR-3 ovarian, 1.65 µM; with T-47D breast it was 0.571 µM. The GI50 is 1.75 µM in the assay with 786-0 renal, 1.96 µM in the assay with OVCAR-5 ovarian and 1.01 µM with UACC-62 melanoma. For the same compound, the TGI is 8.88 µM in the assay on BT-549 breast; over 100 µM in the assay with HT29 colon; 2.11 µM with SK-OV-3 ovarian; over 100 µM in the assay with SNB-19 CNS; 7.43 µM in the assay on OVCAR-3 ovarian; 4.26 µM with T-47D breast. Further, the TGI was over 100 µM with 786-0 renal, over 100 µM in the assay on OVCAR-5 ovarian and 6.17 µM with UACC-62 melanoma.
As for `CC(=O)NCCc1c2c(c3nccc4c3c1Nc1ccccc1-4)OCS2`, the GI50 in the assay with BT-549 breast was 6.13 µM; in the assay on HT29 colon, 0.968 µM; in the assay with SK-OV-3 ovarian, 1.52 µM; in the assay with SNB-19 CNS, 3.17 µM; in the assay with OVCAR-3 ovarian, 1.48 µM; with T-47D breast, 2.39 µM. Moreover, the GI50 in the assay on 786-0 renal is 3.66 µM; in the assay on OVCAR-5 ovarian, 5.21 µM; in the assay with UACC-62 melanoma, 5.5 µM. Also, the TGI in the assay with BT-549 breast came to 19.7 µM; in the assay on HT29 colon, 4.77 µM; in the assay on SK-OV-3 ovarian it was 18.8 µM; in the assay on SNB-19 CNS it was 18.8 µM; in the assay with OVCAR-3 ovarian, 5.67 µM; in the assay with T-47D breast, 12.8 µM. Also, the TGI in the assay on 786-0 renal came to 28.9 µM; in the assay on OVCAR-5 ovarian it was 21.3 µM; with UACC-62 melanoma, 19.3 µM.
